Values quoted from earlier work as cited in US20060269596A1, “Controlled release compositions comprising an acylanilide” (priority 2005, published 2006).

Legend:
[1] = 37 C

SMILES: CC(O)(CS(=O)(=O)c1ccc(F)cc1)C(=O)Nc1ccc(C#N)c(C(F)(F)F)c1 (racemic) [Bicalutamide]
- solubility in water [1]: 5 mg per 1000 mL
- absorption following oral administration (oral): well-absorbed
- effect of co-administration with food on rate or extent of absorption (with food): no clinically significant effect
